These results are taken from patent US20100202971A1, “COMPOUND HAVING TUMOR-RESIDENT PROPERTY” (priority 2009, published 2010).

What all share (type): in vivo, KSN nude mice
Series [1] has as its system human esophageal squamous cell carcinoma cells TE-8. Briefly: Biological distribution of biotinated αSQMG in tumor of tumor-bearing nude mice (TRITC-avidin staining of tumor segments). Conditions: intravenous 40, 20 and 2 mg/kg, FIG. 1. As to the method: 1×10^6 of human esophageal squamous cell carcinoma cells TE-8 were transplanted into the right femoral region of 11 male KSN nude mice (Japan SLC, Inc.), and the mice were bred to form a tumor mass of about […] volume.
Thereafter, biotinated αSQMG C18:0 (formula XI) was dissolved in physiological saline solution, and 0.1 mL of the solution per administration was intravenously administered to each group comprising three mice so that the amount of the biotinated αSQMG C18:0 could be 40 mg/kg, 20 mg/kg, and 2 mg/kg. To two reference tumor bearing mice, physiological saline was administered. […]
In order to evaluate a tumor region which emits fluorescence due to TRITC, binarization imaging was performed with use of Photoshop. Thereafter, a portion (fraction) containing tumor tissues was selected from the visual field, and the number of pixels of a TRITC positive region (black color region) and the entire region were counted and the ratio of the positive region was calculated according to the formula:
The proportion (%) of biotinated αSQAP detected region=[the area of the black color region (region where the biotinated αSQMG was detected)]/[the area of the whole of the selected fraction]×100=[the number of pixels in the TRITC positive region]/[the number of pixels in the whole fraction]×100 (%) formula (A) […]

Series [2] relates to human sophageal squamous cell carcinoma cells TE-8. Briefly: Pharmacokinetics 2: concentration-time course in blood plasma, organs and tumor after intravenous administration (LC/MS). Conditions: 1 mg/kg intravenous. As to the method: To eight-week-old male KSN nude mice (Japan SLC, Inc.), 2×10^6 of human colon carcinoma cells (SW480) were transplanted subcutaneously, two weeks later (body weight approximately 25 g, tumor volume approximately 200 mm^3) αSQMG C18:0 or αSQAP C18:0 was dissolved in physiological saline solution and administered intraperitoneally at a dose of 10 mg/kg (0.1 mL). After the administration, the mice were slaughtered chronologically with carbon dioxide; 30 minute, 1 hour, 2 hours, 4 hours, 12 hours, and 24 hours after the administration. Tissues of blood, liver, kidney, lung and spleen, and tumor tissue were then collected. At each time when tissues were collected, five animals were used. Whole blood was collected from postcaval vein with use of an injection needle wetted with heparin sodium injection solution (10,000 unit/10 mL) to obtain blood plasma by 20 minutes of centrifugation at 6,000 g. To 90 μl of blood plasma, 5 μl of an internal standard compound (αSQMG C16:0), 5 μl of distilled water, and 4 μl of phosphoric acid were added, and denatured protein by adding 96 μl of acetonitrile. To 0.2 mL of the solution, 600 μl of 10 mM ammonium acetate solution was added, and stirred sufficiently to obtain supernatant by centrifugation at 16,000 g for 15 minutes. The supernatant was subjected to solid-phase extraction operation as described below. The solid-phase extraction was performed by washing with 1000 μl of 10 mM ammonium acetate aqueous solution and 200 μl of 10 mM ammonium acetate aqueous solution containing 10% acetonitrile, followed by elution of a test compound with 200 μl of 10 mM ammonium acetate aqueous solution containing 70% acetonitrile with use of Empore (trademark) disc cartridge (3M Company, product number 4115SD). The compound was used as a LC/MS analytical sample. Each organ was extirpated after collection of blood and immediately frozen on dry ice. The frozen sample was subjected to frost shattering, and the weight was measured. Subsequently, ½-fold (weight ratio) internal standard compound (αSQMG C16:0) and distilled water were added, and 8-fold (weight ratio) extraction solution (2.5% NP-40, 2% phosphoric acid, 2 mM Eserine aqueous solution) was further added to the sample, followed by homogenization. The homogenized solution was subjected to protein denaturation with acetonitrile and solid phase extraction in the same manner as the above-mentioned treatment of blood plasma to obtain an analytical sample. 10 μl of the analytical sample was separated with a reverse phase HPLC system equipped with Capcell Pak MG column (particle diameter; 3 μm, column size; 2.1×50 mm, Shiseido Co., Ltd.). HPLC was performed with 68% acetonitrile and a single solvent of 10 mM ammonium acetate aqueous solution at a flow rate of 0.2 mL per minute. Mass spectrum was measured in a negative mode, and the peak area ratio of the internal standard compound was calculated by integration of the peak area from chromatogram corresponding to each ion by measuring a precursor ion; m/z=583.1, fragment ion; m/z=224.7 and m/z=298.8 for αSQMG C18:0, a precursor ion; m/z=567.1, fragment ion; m/z=224.7 and m/z=283.1 for αSQAP C18:0, and a precursor ion; m/z=555.1, fragment ion; m/z=224.7 and m/z=298.8 for a internal standard compound αSQMG C16:0. As a method of quantitative analysis, an internal standard analysis was adopted. More specifically, a standard curve was drawn based on the peak area ratio of the internal standard compound by analyzing the sample to which the test compound was added, to determine the quantity of the test compound. The pharmacokinetics of αSQAP C18:0 was tested by administering 1 mg/kg of αSQAP C18:0 to animals in the same manner as Example 3 except that human sophageal squamous cell carcinoma cells TE-8 were used as tumor of transplanted tumor model and that intravenous administration was adopted as substitute for interperitoneal administration.

Series [3] deals with human colon carcinoma cells (SW480). The series is described as follows: Pharmacokinetics 1: concentration-time course in blood plasma, organs and tumor after intraperitoneal administration (LC/MS). Conditions: 10 mg/kg intraperitoneal; for concentration in tumor tissues immediately after administration in comparison with other tissues / concentration in tumor tissues 24 hours after administration / residence in tumor tissues: SW480 tumor; for time of the highest concentration in blood plasma, liver, kidney, spleen and lung / time after administration at which concentration fell below the detection limit, blood plasma / time after administration at which concentration fell below the detection limit, kidney / time after administration at which concentration fell below the detection limit, liver / time after administration at which concentration fell below the detection limit, lung / time after administration at which concentration fell below the detection limit, spleen: SW480 tumor-bearing nude mice; for residence in tumor tissues: followed to 24 hours. The method, then:
To eight-week-old male KSN nude mice (Japan SLC, Inc.), 2×10^6 of human colon carcinoma cells (SW480) were transplanted subcutaneously, two weeks later (body weight approximately 25 g, tumor volume approximately 200 mm^3) αSQMG C18:0 or αSQAP C18:0 was dissolved in physiological saline solution and administered intraperitoneally at a dose of 10 mg/kg (0.1 mL). After the administration, the mice were slaughtered chronologically with carbon dioxide; 30 minute, 1 hour, 2 hours, 4 hours, 12 hours, and 24 hours after the administration. Tissues of blood, liver, kidney, lung and spleen, and tumor tissue were then collected. At each time when tissues were collected, five animals were used.
Whole blood was collected from postcaval vein with use of an injection needle wetted with heparin sodium injection solution (10,000 unit/10 mL) to obtain blood plasma by 20 minutes of centrifugation at 6,000 g. To 90 μl of blood plasma, 5 μl of an internal standard compound (αSQMG C16:0), 5 μl of distilled water, and 4 μl of phosphoric acid were added, and denatured protein by adding 96 μl of acetonitrile. To 0.2 mL of the solution, 600 μl of 10 mM ammonium acetate solution was added, and stirred sufficiently to obtain supernatant by centrifugation at 16,000 g for 15 minutes. The supernatant was subjected to solid-phase extraction operation as described below. The solid-phase extraction was performed by washing with 1000 μl of 10 mM ammonium acetate aqueous solution and 200 μl of 10 mM ammonium acetate aqueous solution containing 10% acetonitrile, followed by elution of a test compound with 200 μl of 10 mM ammonium acetate aqueous solution containing 70% acetonitrile with use of Empore (trademark) disc cartridge (3M Company, product number 4115SD). The compound was used as a LC/MS analytical sample.
Each organ was extirpated after collection of blood and immediately frozen on dry ice. The frozen sample was subjected to frost shattering, and the weight was measured. Subsequently, ½-fold (weight ratio) internal standard compound (αSQMG C16:0) and distilled water were added, and 8-fold (weight ratio) extraction solution (2.5% NP-40, 2% phosphoric acid, 2 mM Eserine aqueous solution) was further added to the sample, followed by homogenization. The homogenized solution was subjected to protein denaturation with acetonitrile and solid phase extraction in the same manner as the above-mentioned treatment of blood plasma to obtain an analytical sample.
10 μl of the analytical sample was separated with a reverse phase HPLC system equipped with Capcell Pak MG column (particle diameter; 3 μm, column size; 2.1×50 mm, Shiseido Co., Ltd.). HPLC was performed with 68% acetonitrile and a single solvent of 10 mM ammonium acetate aqueous solution at a flow rate of 0.2 mL per minute. Mass spectrum was measured in a negative mode, and the peak area ratio of the internal standard compound was calculated by integration of the peak area from chromatogram corresponding to each ion by measuring a precursor ion; m/z=583.1, fragment ion; m/z=224.7 and m/z=298.8 for αSQMG C18:0, a precursor ion; m/z=567.1, fragment ion; m/z=224.7 and m/z=283.1 for αSQAP C18:0, and a precursor ion; m/z=555.1, fragment ion; m/z=224.7 and m/z=298.8 for a internal standard compound αSQMG C16:0. As a method of quantitative analysis, an internal standard analysis was adopted. More specifically, a standard curve was drawn based on the peak area ratio of the internal standard compound by analyzing the sample to which the test compound was added, to determine the quantity of the test compound.

Consider “3-O-[4-O-(biotinyl-β-alanyl)-6-sulfo-α-D-quinovopyranosyl]-1-0-stearoyl-glycerol [biotinated αSQMG C18:0]”, for which, in series [1] (9 hours after administration), the tumor-resident amount result was “high”. Also, in series [1] (tumor extracted 9 hours after administration, TE-8 tumor), the “staining of tumor tissues (TRITC positive region)” value was “strongly stained according to the dose”.
Consider `CCCCCCCCCCCCCCCCCC(=O)OCCCO[C@H]1O[C@H](CS(=O)(=O)[O-])[C@@H](O)[C@H](O)[C@H]1O.[Na+]` [αSQAP C18:0], for which the “concentration in tumor tissue immediately after administration in comparison with other organs” value in series [2] (TE-8 tumor) is reported as “low”. In addition, the “time of the highest concentration in blood plasma, liver, spleen and lung” value in series [2] (TE-8 tumor-bearing nude mice) is recorded as “immediately after administration”. Besides, in series [2] (TE-8 tumor-bearing nude mice, blood plasma), the “time after administration at which concentration fell below the detection limit, blood plasma” value is recorded as “two”. For the same molecule, in series [2] (TE-8 tumor-bearing nude mice, liver), the “time after administration at which concentration fell below the detection limit, liver” value was “two”. The “time after administration at which concentration fell below the detection limit, lung” value in series [2] (TE-8 tumor-bearing nude mice, lung) is recorded as “two”. In addition, the “time after administration at which concentration fell below the detection limit, spleen” value in series [2] (TE-8 tumor-bearing nude mice, spleen) was found to be 24 h. Besides, the “concentration in tumor tissue after 24 hours” value in series [2] (TE-8 tumor, 24 hours) is “detectable”. The “course of concentration in tumor tissue after two hours” value in series [2] (TE-8 tumor, after two hours) is given as “no decrease tendency”. Moreover, the “residence in tumor tissues” value in series [2] (TE-8 tumor, followed to 24 hours) is given as “resides for a long period”. Further, in series [3], the “concentration in tumor tissues immediately after administration in comparison with other tissues” value is recorded as “low”; the “time of the highest concentration in blood plasma, liver, kidney, spleen and lung” value is reported as “immediately after the administration”; the “time after administration at which concentration fell below the detection limit, blood plasma” value is “four”; the “time after administration at which concentration fell below the detection limit, kidney” value was “four”. Besides, in series [3], the “time after administration at which concentration fell below the detection limit, liver” value amounted to 12 h; the “time after administration at which concentration fell below the detection limit, lung” value is “four”; the “time after administration at which concentration fell below the detection limit, spleen” value is reported as “four”; the “concentration in tumor tissues 24 hours after administration” value is reported as “detectable”. For the same molecule, in series [3], the “residence in tumor tissues” value is reported as “resides for a long period”.
On to `CCCCCCCCCCCCCCCCCC(=O)OCC(O)CO[C@H]1O[C@H](CS(=O)(=O)[O-])[C@@H](O)[C@H](O)[C@H]1O.[Na+]` (some centres unmarked) [αSQMG C18:0], for which, in series [3], the “concentration in tumor tissues immediately after administration in comparison with other tissues” value is “low”; the “time of the highest concentration in blood plasma, liver, kidney, spleen and lung” value was “immediately after the administration”; the “time after administration at which concentration fell below the detection limit, blood plasma” value is reported as “four”; the “time after administration at which concentration fell below the detection limit, kidney” value is “four”. For the same molecule, in series [3], the “time after administration at which concentration fell below the detection limit, liver” value was “four”; the “time after administration at which concentration fell below the detection limit, lung” value is “four”; the “time after administration at which concentration fell below the detection limit, spleen” value was found to be 12 h; the “concentration in tumor tissues 24 hours after administration” value is given as “detectable”. In series [3], the “residence in tumor tissues” value is “resides for a long period”.
